Series [1] has as its target T1, CYP2C9 (Homo sapiens, UniProt P11712).
T1 construct: purchased Merck
Kind of series: in vitro. Type of series: biochemical. Particulars: human, pH 7.5. On the procedure: Inhibitory actions of ZEN conjugates on CYP2C9 and CYP3A4 enzymes were examined employing CypExpress Cytochrome P450 human kits. , Briefly, incubates (200 μL) contained the substrate (5 μM; diclofenac for CYP2C9 and testosterone for CYP3A4), the CypExpress reagent (6 mg/mL of CYP2C9 kit or 15 mg/mL of CYP3A4 kit; also including the glucose-6-phosphate dehydrogenase enzyme), and the test compounds (each 20 μM) in 0.05 M potassium phosphate buffer (pH 7.5). CYP3A4 assay was supplemented with additional G6P and NADP^+ (both 400 μM). Enzyme assays were started with the addition of the enzyme. After 120 min (CYP2C9) or 180 min (CYP3A4) incubation at 700 rpm and 30 °C in a thermomixer, the reaction was stopped with 100 μL of ice-cold methanol. Then, the samples were centrifuged for 10 min at 14,000g and room temperature. The supernatants were gently removed and directly analyzed by HPLC (see Section ).
Diclofenac and 4′-hydroxydiclofenac (CYP2C9 assay) were quantified using the previously reported HPLC-UV assay, , without modification. Briefly, the isocratic elution, with 1.0 mL/min flow rate, was performed with orthophosphoric acid (6 mM) and acetonitrile (48:52 v/v %) mobile phase, applying a Security Guard (C8, 4.0 × 3.0 mm; Phenomenex, Torrance, CA) precolumn and a Mediterranea Sea8 (C8, 150 × 4.6 mm, 5 μm; Teknokroma, Barcelona, Spain) analytical column at room temperature (injected volume: 20 μL). Diclofenac and 4′-hydroxydiclofenac were detected at 275 nm.

Series [2] addresses T2, MDR1 (Homo sapiens, UniProt P08183).
T2 construct: made in house; host or cells: Sf9 insect cells (baculovirus)
Briefly: MDR1-mediated NMQ vesicular transport (Sf9 membrane vesicles). It counts as biochemical. Particulars: human; 30 μM; NMQ 5 μM; read-out: inhibition of MDR1-mediated, ATP-dependent uptake of NMQ. On the procedure: Experiments were performed in insect membrane vesicles, as described previously. Briefly, human MDR1, BCRP, and MRP2 were expressed in Sf9 insect cells by baculoviruses. On the third day of infection, cells were collected and membrane vesicles were obtained by mechanical disruption and differential centrifugation. To get full activity for BCRP, the cholesterol levels of the vesicles were adjusted to the level of mammalian membranes. Vesicles were stored at −80 °C, and the total protein content of the preparations was measured by the Lowry method (used as a reference for the quantity). […] A 100 μL volume of fluorescence stabilizer was added to the samples (DMSO for LY, 0.1 M H2SO4 for NMQ, and 0.1 M NaOH for CDCF). Fluorescence of samples was measured by plate readers (Victor X3 and Enspire PerkinElmer; Waltham, MA) at appropriate wavelengths (filters in the Victor X3 reader were 405/535 nm for LY and 492/635 nm for CDCF; while in the Enspire reader, NMQ was measured at 360/430 nm excitation/emission wavelengths). ABC-related transport was calculated by subtracting passive uptake measured without Mg-ATP from values measured in the presence of Mg-ATP.

By inhibition is commonly meant the percentage by which the read-out fell short of the control.

T2 sequence (P08183 whole entry): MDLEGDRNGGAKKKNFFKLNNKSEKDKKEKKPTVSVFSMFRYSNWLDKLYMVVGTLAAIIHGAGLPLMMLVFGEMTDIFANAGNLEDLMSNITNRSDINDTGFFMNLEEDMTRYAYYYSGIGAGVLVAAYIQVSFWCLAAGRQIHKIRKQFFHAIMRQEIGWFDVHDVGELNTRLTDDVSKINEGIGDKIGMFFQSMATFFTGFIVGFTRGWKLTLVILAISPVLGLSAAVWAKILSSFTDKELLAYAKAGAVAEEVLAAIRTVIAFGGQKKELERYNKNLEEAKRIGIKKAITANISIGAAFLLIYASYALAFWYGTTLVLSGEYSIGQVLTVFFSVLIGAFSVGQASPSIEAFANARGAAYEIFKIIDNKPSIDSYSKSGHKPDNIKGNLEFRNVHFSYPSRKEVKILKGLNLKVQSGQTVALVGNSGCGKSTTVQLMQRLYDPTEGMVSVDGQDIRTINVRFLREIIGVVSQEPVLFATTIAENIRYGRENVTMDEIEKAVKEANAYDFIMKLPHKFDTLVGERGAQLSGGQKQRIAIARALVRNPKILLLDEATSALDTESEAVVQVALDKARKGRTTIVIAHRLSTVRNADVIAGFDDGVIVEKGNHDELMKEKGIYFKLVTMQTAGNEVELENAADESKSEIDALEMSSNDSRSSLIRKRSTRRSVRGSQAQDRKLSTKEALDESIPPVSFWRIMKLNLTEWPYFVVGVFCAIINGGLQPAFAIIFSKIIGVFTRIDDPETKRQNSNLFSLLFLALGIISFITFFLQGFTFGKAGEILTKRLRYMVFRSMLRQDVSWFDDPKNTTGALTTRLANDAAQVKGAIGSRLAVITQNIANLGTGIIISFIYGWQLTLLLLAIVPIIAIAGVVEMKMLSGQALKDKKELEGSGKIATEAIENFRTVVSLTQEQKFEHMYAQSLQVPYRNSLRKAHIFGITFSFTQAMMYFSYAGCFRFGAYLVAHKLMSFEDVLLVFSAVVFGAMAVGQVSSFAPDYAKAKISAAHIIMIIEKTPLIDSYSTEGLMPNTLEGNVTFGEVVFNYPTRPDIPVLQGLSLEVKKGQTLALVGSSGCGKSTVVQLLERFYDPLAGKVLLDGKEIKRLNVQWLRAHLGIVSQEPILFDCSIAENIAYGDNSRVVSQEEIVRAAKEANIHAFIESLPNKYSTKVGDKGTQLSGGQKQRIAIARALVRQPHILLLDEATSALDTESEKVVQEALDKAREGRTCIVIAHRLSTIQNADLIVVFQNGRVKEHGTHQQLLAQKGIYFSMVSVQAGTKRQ
T1 sequence (P11712 whole entry): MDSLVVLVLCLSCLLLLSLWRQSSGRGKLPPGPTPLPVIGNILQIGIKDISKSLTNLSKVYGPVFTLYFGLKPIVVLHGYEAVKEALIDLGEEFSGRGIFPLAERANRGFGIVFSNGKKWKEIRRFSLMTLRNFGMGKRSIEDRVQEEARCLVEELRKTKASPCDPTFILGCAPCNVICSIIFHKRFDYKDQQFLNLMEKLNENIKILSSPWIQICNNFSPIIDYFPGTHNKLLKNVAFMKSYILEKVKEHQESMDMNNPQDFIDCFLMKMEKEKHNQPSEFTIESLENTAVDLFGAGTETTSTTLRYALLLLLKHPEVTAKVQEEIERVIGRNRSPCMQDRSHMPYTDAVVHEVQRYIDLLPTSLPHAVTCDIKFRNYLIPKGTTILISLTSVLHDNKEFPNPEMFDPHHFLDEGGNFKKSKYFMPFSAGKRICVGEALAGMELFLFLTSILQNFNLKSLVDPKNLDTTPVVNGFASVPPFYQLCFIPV

As to `Nc1ccc(S(=O)(=O)Nc2ccnn2-c2ccccc2)cc1` [sulfaphenazole, reference compound], the “inhibition of CYP2C9 (decrease in metabolite formation)” value in series [1] is recorded as “more than 90%”. As to `COc1ccc(CCN(C)CCCC(C#N)(c2ccc(OC)c(OC)c2)C(C)C)cc1OC` (centres unmarked) [verapamil, reference compound], in series [2], the inhibition at 10 min, 30 μM amounted to 97%.

For the origin of these results see paper PMC12311865, “In Vitro Evaluation of the Potential Interactions of Zearalenone-14-sulfate and Zearalenone-14-glucuronide with Human Cytochrome P450 Enzymes, Organic Anion Transporting Polypeptides, and ATP-Binding Cassette Multidrug Transporters” (ACS Omega, 2025).
